Measurements from patent US6528484B1, “Insecticidal protein toxins from Photorhabdus” (priority 1993, dated 2003).
Where two headings read alike, the source gives them in different places. Where a SMILES comes first, the peptide text is derived from it. [ ]: non-standard residue; d: D form. The star is where a group is joined. Sta = CC(C)C[C@H](N)[C@@H](O)CC(=O)O; Isovaleryl = CC(C)CC(=O)*

What was measured:
[1] = system: protease(s) found in the Photorhabdus broth; type: biochemical, Photorhabdus luminescens; details: for Corrected Flu. Units (Fluorescence Units - background) / Percent Inhibition relative to protease activity at pH 8.0: pH 8
Protocol: Protease Inhibition and Classification Assays: Protease assays were performed using FITC-casein dissolved in water as substrate (0.08% final assay concentration). Proteolysis reactions were performed at 25° C. for 1 h in the appropriate buffer with 25 μl of Photorhabdus broth (150 μl total reaction volume). Samples were also assayed in the presence and absence of dithiothreitol. After incubation, an equal volume of 12% trichloroacetic acid was added to precipitate undigested protein. Following precipitation for 0.5 h and subsequent centrifugation, 100 μl of the supernatant was placed into a 96-well microtiter plate and the pH of the solution was adjusted by addition of an equal volume of 4N NaOH. Proteolysis was then quantitated using a Fluoroskan II fluorometric plate reader at excitation and emission wavelengths of 485 and 538 nm, respectively. Protease activity was tested over a range from pH 5.0-10.0 in 0.5 units increments. The following buffers were used at 50 mM final concentration: sodium acetate (pH 5.0-6.5); Tris-HCL (pH 7.0-8.0); and bis-Tris propane (pH 8.5-10.0). […] The protease inhibitors used included E-64 (L-trans-expoxysaccinylleucylamido[4-,-guanidino]-butane), 3,4 dichloroisocoumarin, Leupeptin, pepstatin, amastatin, ethylenediaminetetraacetic acid (EDTA) and 1,10 phenanthroline.

58 kDa protease = experiment: Inhibition of purified 58 kDa protease; type: biochemical, Photorhabdus luminescens
Protocol: (§1) Activity assays of the different proteases in W-14 day three culture broth were performed using FITC-casein dissolved in water as substrate (0.02% final assay concentration). Proteolysis experiments were performed at 37° C. for 0-0.5 h in 0.1M Tris-HCl (pH 8.0) with different protein fractions in a total volume of 0.15 ml. Reactions were terminated by addition of an equal volume of 12% trichloroacetic acid (TCA) dissolved in water. After incubation at room temperature for 0.25 h, samples were centrifuged at […] for 0.25 h and 0.10 ml aliquots were removed and placed into 96-well microtiter plates. The solution was then neutralized by the addition of an equal volume of 2 N sodium hydroxide, followed by quantitation using a Fluoroskan II fluorometric plate reader with excitation and emission wavelengths of 485 and 538 nm, respectively. Activity measurements were performed using FITC-Casein with different protease concentrations at 37° C. for 0-10 min. A unit of activity was arbitrarily defined as the amount of enzyme needed to produce 1000 fluorescent units/min and specific activity was defined as units/mg of protease.
(§2) Inhibition studies were performed using two zinc-metalloprotease inhibitors; 1,10 phenanthroline and N-(a-rhamnopyranosyloxyhydroxyphosphinyl)-Leu-Trp(phosphoramidon) with stock solutions of the inhibitors dissolved in 100% ethanol and water, respectively. […]

41/38 kDa protease = experiment: Inhibition of purified 41/38 kDa protease; type: biochemical, Photorhabdus luminescens
Protocol: as §1, §2

[2] = system: protease activity of three day W-14 crude broth; experiment: FITC-casein protease assay, three day W-14 crude broth; type: biochemical, Photorhabdus luminescens; details: inhibitor 0.5-1.0 mg/ml per reaction
Protocol: as §1, §2

[3] = system: neonate Diabrotica undecimpunctata howardi (Southern corn rootworm, SCR); experiment: SCR bioassay on artificial diet (Example 13; used in Examples 14-16); type: in vivo
[4] = inhibitor 0.5 μg/μl final concentration, Day 1 production broth

O[C@H](CS)[C@H](O)CS (racemic) [DTT, dithiothreitol]
effect on protease activity ([1]; samples assayed in presence and absence of dithiothreitol): did not have any effect

CC(C)C[C@H](NC(=O)[C@H]1O[C@@H]1C(=O)O)C(=O)NCCCCN=C(N)N (relative stereo) [Strain E-64, L-trans-expoxysaccinylleucylamido[4-,-guanidino]-butane]
Corrected Flu. Units (Fluorescence Units - background) [1]: 14259 Fluorescence Units
Percent Inhibition relative to protease activity at pH 8.0 [1]: 0%

c1cnc2c(c1)ccc1cccnc12 [1,10 Phenanthroline, 1,10 phenanthroline]
inhibition of purified 58 kDa protease (58 kDa protease): completely inhibited
inhibition of purified 41/38 kDa protease (41/38 kDa protease): completely inhibited
inhibition of all protease activity of crude broth ([1]; final concentration of 50 μg): complete inhibition
IC50 ([1]; in 100 μl of a 2 mg/ml crude broth solution): 5 µg
Corrected Flu. Units (Fluorescence Units - background) [1, 4]: 15 Fluorescence Units
Percent Inhibition relative to protease activity at pH 8.0 [1, 4]: 99%
effect on protease activity of three day W-14 crude broth [2]: complete elimination of all protease activity

O=c1oc(Cl)c(Cl)c2ccccc12 [3,4 Dichloroisocoumarin, 3,4 dichloroisocoumarin]
Corrected Flu. Units (Fluorescence Units - background) [1, 4]: 7956 Fluorescence Units
Percent Inhibition relative to protease activity at pH 8.0 [1, 4]: 39%

CC(C)C[C@@H](N)[C@H](O)C(=O)N[C@H](C(=O)N[C@H](C(=O)N[C@@H](CC(=O)O)C(=O)O)C(C)C)C(C)C [Amastatin, amastatin]
Corrected Flu. Units (Fluorescence Units - background) [1, 4]: 12474 Fluorescence Units
Percent Inhibition relative to protease activity at pH 8.0 [1, 4]: 4%

CC(=O)N[C@@H](CC(C)C)C(=O)N[C@@H](CC(C)C)C(=O)N[C@H](C=O)CCCNC(=N)N [Leupeptin]
Corrected Flu. Units (Fluorescence Units - background) [1, 4]: 13074 Fluorescence Units
Percent Inhibition relative to protease activity at pH 8.0 [1, 4]: 0%

CC(C)CC(=O)N[C@H](C(=O)N[C@H](C(=O)N[C@@H](CC(C)C)[C@@H](O)CC(=O)N[C@@H](C)C(=O)N[C@@H](CC(C)C)[C@@H](O)CC(=O)O)C(C)C)C(C)C [Pepstatin, pepstatin] (Isovaleryl-VV[Sta]A[Sta]-OH)
Corrected Flu. Units (Fluorescence Units - background) [1, 4]: 13441 Fluorescence Units
Percent Inhibition relative to protease activity at pH 8.0 [1, 4]: 0%

CC(C)C[C@H](NP(=O)(O)O[C@@H]1O[C@@H](C)[C@H](O)[C@@H](O)[C@H]1O)C(=O)N[C@@H](Cc1c[nH]c2ccccc12)C(=O)O [phosphoramidon, N-(a-rhamnopyranosyloxyhydroxyphosphinyl)-Leu-Trp]
inhibition of purified 58 kDa protease (58 kDa protease): insensitive
inhibition of purified 41/38 kDa protease (41/38 kDa protease): inhibited
reduction of protease activity of three day W-14 crude broth ([2]; not further reduced with additional inhibitor): about 56%

TcbA: peptide TcbA, SEQ ID NO:12; in Table 24 bioassay lines the TcbA-enriched toxin B complex fraction of W-14 broth
SCR Weight (mg/insect), average weight of live insect after 5 days on diet ([3]; 38 kDa protease treatment): 0.1 mg/insect
LD50 (μg protein) ([3]; 38 kDa protease treatment, 37° C., 90 min): 0.52 μg protein
LD50 (μg protein) ([3]; Control (protease omitted)): 2.1 μg protein
SCR Weight (mg/insect), average weight of live insect after 5 days on diet ([3]; Control (protease omitted)): 0.2 mg/insect
fold increase of SCR insecticidal activity by 38 kDa protease treatment ([3]; comparison of activity in several dilutions): 3 to 4 fold

toxin A: 860 kDa complex purified from activity peak A; major peptides TcdAii and TcdAiii
activity against Southern corn root worm ([3]; in vivo): active

toxin B: 860 kDa complex purified from activity peak B; major peptides TcbAii and TcbAiii (or intact TcbA)
LD50 against SCR after SCR gut content treatment ([3]; 40 μg toxin with 50 μl SCR gut content, 37° C. overnight): about 70 ng
fold increase of SCR activity by SCR gut content treatment ([3]; LD50 treated against untreated): 10 fold
LD50 against SCR ([3]; in vivo): around 700 ng
activity against Southern corn root worm ([3]; in vivo): active
toxin activity after protease K treatment ([3]; separate experiment): completely eliminated toxin activity
